Source: patent US20260285850A1, “SUBSTITUTED OXAZOLIDINONES AND IMIDAZOLINONES AS HERBICIDES” (FMC CORPORATION, priority 2023, published 2026)

Legend:
Type in all cases: in vivo
[1] = test system: barnyardgrass (Echinochloa crus-galli); assay: Test A preemergence soil spray, visual injury rating 0-100; conditions: 10 days
How it was run: (§1)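 Visual injury ratings (0, no effect; 100, complete control) were assigned relative to untreated plants 10 days after treatment. Test chemicals, formulated with a surfactant-containing non-phytotoxic solvent, were applied in loam-sand soil either as a directed soil spray before emergence or to emerged plants, and plants were kept in a greenhouse.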

[2] = test system: blackgrass (Alopecurus myosuroides); assay: as above; conditions: 10 days
How it was run: as §1

corn (Zea mays) [3] = assay: as above; conditions: 10 days
How it was run: as §1

[4] = test system: green foxtail (Setaria viridis); assay: as above; conditions: 10 days
How it was run: as §1

kochia (Bassia scoparia) [5] = assay: as above; conditions: 10 days
How it was run: as §1

[6] = test system: oat, wild (wild oat, Avena fatua); assay: as above; conditions: 10 days
How it was run: as §1

[7] = test system: palmer (palmer amaranth, palmer pigweed, Amaranthus palmeri); assay: as above; conditions: 10 days
How it was run: as §1

[8] = test system: ragweed (common ragweed, Ambrosia artemisiifolia); assay: as above; conditions: 10 days
How it was run: as §1

[9] = test system: ryegrass, Italian (italian ryegrass, Lolium multiflorum); assay: as above; conditions: 10 days
How it was run: as §1

soybean (Glycine max) [10] = assay: as above; conditions: 10 days
How it was run: as §1

[11] = test system: wheat (Triticum aestivum); assay: as above; conditions: 10 days
How it was run: as §1

[12] = test system: barnyardgrass (Echinochloa crus-galli); assay: Test A postemergence application, visual injury rating 0-100
How it was run: as §1

[13] = test system: blackgrass (Alopecurus myosuroides); assay: as above
How it was run: as §1

corn (Zea mays) [14] = assay: as above
How it was run: as §1

[15] = test system: green foxtail (Setaria viridis); assay: as above
How it was run: as §1

[16] = test system: horseweed (Erigeron canadensis); assay: as above
How it was run: as §1

kochia (Bassia scoparia) [17] = assay: as above
How it was run: as §1

[18] = test system: oat, wild (wild oat, Avena fatua); assay: as above
How it was run: as §1

[19] = test system: palmer (palmer amaranth, palmer pigweed, Amaranthus palmeri); assay: as above
How it was run: as §1

[20] = test system: ragweed (common ragweed, Ambrosia artemisiifolia); assay: as above
How it was run: as §1

[21] = test system: ryegrass, Italian (italian ryegrass, Lolium multiflorum); assay: as above
How it was run: as §1

soybean (Glycine max) [22] = assay: as above
How it was run: as §1

[23] = test system: wheat (Triticum aestivum); assay: as above
How it was run: as §1

[24] = test system: barnyardgrass (Echinochloa crusgalli); assay: Test B flooded paddy test, visual plant response rating 0-100; conditions: 250 g ai/ha, Flood, applied to paddy water, evaluated after 13 days
How it was run: (§2)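 Plants were grown to the 2-leaf stage, then pots were flooded to 3 cm above the soil and test compounds were applied directly into the paddy water. Water depth was held there throughout; after 13 days in a greenhouse, injury was scored visually against untreated controls.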

[25] = test system: ducksalad (Heteranthera limosa); assay: as above; conditions: 250 g ai/ha, Flood, applied to paddy water, evaluated after 13 days
How it was run: as §2

rice (Oryza sativa) = assay: as above; conditions: 250 g ai/ha, Flood, applied to paddy water, evaluated after 13 days
How it was run: as §2

[26] = test system: sedge, umbrella (small-flower umbrella sedge, Cyperus difformis); assay: as above; conditions: 250 g ai/ha, Flood, applied to paddy water, evaluated after 13 days
How it was run: as §2

[27] = 62 g ai/ha, 0 = no effect, 100 = complete control
[28] = 62 g ai/ha, postemergence, 10 days, 0 = no effect, 100 = complete control
[29] = Postemergence, 16 g ai/ha, greenhouse 10 days, 0 no effect, 100 complete control

COC(=O)C1CC(NC(=O)C2(C)CN(c3cc(F)cc(Cl)c3)C(=O)O2)C1 (centres unmarked) [Compound 145]
Barnyardgrass plant response rating ([1]; 16 g ai/ha, 0 to 100 scale): 20 | Barnyardgrass plant response rating (0-100) [1, 27]: 80 | Blackgrass plant response rating ([2]; 16 g ai/ha, 0 to 100 scale): 0 | Blackgrass plant response rating (0-100) [2, 27]: 80 | Corn plant response rating (corn (Zea mays) [3]; 16 g ai/ha, 0 to 100 scale): 10 | Corn plant response rating (0-100) (corn (Zea mays) [3]; [27]): 80 | Foxtail, Green plant response rating ([4]; 16 g ai/ha, 0 to 100 scale): 10 | Foxtail, Green plant response rating (0-100) [4, 27]: 90 | Kochia plant response rating (kochia (Bassia scoparia) [5]; 16 g ai/ha, 0 to 100 scale): 0 | Kochia plant response rating (0-100) (kochia (Bassia scoparia) [5]; [27]): 0 | Oat, Wild plant response rating ([6]; 16 g ai/ha, 0 to 100 scale): 20 | Oat, Wild plant response rating (0-100) [6, 27]: 80 | Pigweed, Palmer plant response rating ([7]; 16 g ai/ha, 0 to 100 scale): 0 | Pigweed, Palmer plant response rating (0-100) [7, 27]: 0 | Ragweed plant response rating ([8]; 16 g ai/ha, 0 to 100 scale): 0 | Ragweed plant response rating (0-100) [8, 27]: 0 | Ryegrass, Italian plant response rating ([9]; 16 g ai/ha, 0 to 100 scale): 30 | Ryegrass, Italian plant response rating (0-100) [9, 27]: 100 | Soybean plant response rating (soybean (Glycine max) [10]; 16 g ai/ha, 0 to 100 scale): 0 | Soybean plant response rating (0-100) (soybean (Glycine max) [10]; [27]): 50 | Wheat plant response rating ([11]; 16 g ai/ha, 0 to 100 scale): 80 | Wheat plant response rating (0-100) [11, 27]: 90 | Barnyardgrass plant response rating (0-100) [12, 28]: 100 | Barnyardgrass plant response rating (0 to 100 scale) [12, 29]: 100 | Blackgrass plant response rating (0-100) [13, 28]: 100 | Blackgrass plant response rating (0 to 100 scale) [13, 29]: 90 | Corn plant response rating (0-100) (corn (Zea mays) [14]; [28]): 100 | Corn plant response rating (0 to 100 scale) (corn (Zea mays) [14]; [29]): 100 | Foxtail, Green plant response rating (0-100) [15, 28]: 90 | Foxtail, Green plant response rating (0 to 100 scale) [15, 29]: 90 | Horseweed plant response rating (0-100) [16, 28]: 30 | Horseweed plant response rating (0 to 100 scale) [16, 29]: 30 | Kochia plant response rating (0-100) (kochia (Bassia scoparia) [17]; [28]): 90 | Kochia plant response rating (0 to 100 scale) (kochia (Bassia scoparia) [17]; [29]): 60 | Oat, Wild plant response rating (0-100) [18, 28]: 90 | Oat, Wild plant response rating (0 to 100 scale) [18, 29]: 90 | Pigweed, Palmer plant response rating (0-100) [19, 28]: 70 | Pigweed, Palmer plant response rating (0 to 100 scale) [19, 29]: 10 | Ragweed plant response rating (0-100) [20, 28]: 20 | Ragweed plant response rating (0 to 100 scale) [20, 29]: 0 | Ryegrass, Italian plant response rating (0-100) [21, 28]: 90 | Ryegrass, Italian plant response rating (0 to 100 scale) [21, 29]: 70 | Soybean plant response rating (0-100) (soybean (Glycine max) [22]; [28]): 80 | Soybean plant response rating (0 to 100 scale) (soybean (Glycine max) [22]; [29]): 50 | Wheat plant response rating (0-100) [23, 28]: 90 | Wheat plant response rating (0 to 100 scale) [23, 29]: 90 | Plant response rating, Barnyardgrass (0 to 100 scale, 0 is no effect and 100 is complete control) [24]: 60 | Plant response rating, Ducksalad (0 to 100 scale, 0 is no effect and 100 is complete control) [25]: 60 | Plant response rating, Rice (0 to 100 scale, 0 is no effect and 100 is complete control) (rice (Oryza sativa)): 40 | Plant response rating, Sedge, Umbrella (0 to 100 scale, 0 is no effect and 100 is complete control) [26]: 50
